According to patent publication US20110236318A1, “ANIMAL MODEL OF AN EJACULATION-LIKE REFLEX” (ASTELLAS PHARMA INC., priority 2010, published 2011):

Experiments:
[1] = tested on: ejaculation-like reflex; assay: Ejaculation-like reflex induced by urethral occlusion by a bend at the penile base; format: in vivo, rat; settings: anesthetized spinal cord-transected male SD rats; 1.0 mg/kg iv; occlusion 10 minutes after dosing; vs pre values; N=3
Source text: Male SD rats of 300-450 g body weight (Charles River) were used under urethane anesthesia (1.2 g/kg, s.c., ACROS Organic). The skin and muscle on the back were incised to expose the 7th-9th thoracic vertebra. The vertebra on the back side was removed to expose the spinal cord, which was cut at the 8th-10th thoracic vertebra. Gelfoam (Pfizer) was imbedded in the cut site and the muscle and skin were sutured.
The neck skin and muscle were incised, and catheters (Intramedic polyethylene tube No. 50; Becton Dickinson) were inserted into the carotid and jugular vein for measuring the blood pressure and administering a drug, respectively. The other end of the carotid catheter was connected to a pressure transducer (CDXIII Transducer, Argon Medical Devices).
The lower abdominal region was subjected to median incision to expose the bladder. […] The pressure transducers connecting to the catheter inserted into the carotid […] and the catheter inserted into the proximal urethra were connected to a distortion pressure amplifier (Transbridge 4M, World Precision Instruments) installed in a polygraph system (RPS321RM, GRASS Technologies), and the blood pressure and urethral pressure were measured by a Power Labosystem (ML880 and LabChart version 6, AD Instruments) with a lapse of time. […]

[2] = tested on: ejaculatory latency; settings: male rat copulatory behavior study, reported previously; cited from earlier work

Compound: CCCN(CCC)C1CCc2cccc(O)c2C1 (stereo not drawn) [8-OH-DPAT]
- latency from the start of occlusion until the first ejaculation-like reflex [1]: shortened the latency of the first ejaculation-like reflex
- threshold urethra pressure immediately before the first ejaculation-like reflex [1]: reduced the threshold urethra pressure
- ejaculatory latency [2]: shorten the ejaculatory latency
